Test results taken from patent publication US9156796B2, “Benzoimidazole-carboxylic acid amide derivatives as APJ receptor modulators” (SANOFI, priority 2013, dated 2015).

The compounds below were run against T1, human apelin receptor (Homo sapiens, UniProt P35414) (assay: Determination of agonism on the human apelin receptor by a calcium fluorescence assay (FLIPR)). Details: EC50 (APJ agonism), HEK293 cells stably transfected with human apelin receptor and Giaq protein, Fluo-4 calcium fluorescence.
T1 construct: expressed in transfected cells
T1 sequence (P35414 1-380): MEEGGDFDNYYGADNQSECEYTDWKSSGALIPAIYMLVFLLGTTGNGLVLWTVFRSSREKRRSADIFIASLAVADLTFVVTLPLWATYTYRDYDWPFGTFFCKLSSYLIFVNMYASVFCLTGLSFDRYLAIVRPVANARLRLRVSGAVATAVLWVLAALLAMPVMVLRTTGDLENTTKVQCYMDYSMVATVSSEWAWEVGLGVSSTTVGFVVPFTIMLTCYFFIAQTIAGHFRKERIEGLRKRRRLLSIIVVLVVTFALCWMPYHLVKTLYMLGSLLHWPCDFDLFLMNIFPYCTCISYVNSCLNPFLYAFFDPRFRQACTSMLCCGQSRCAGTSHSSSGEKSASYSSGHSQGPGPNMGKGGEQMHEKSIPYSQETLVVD
Format: cell-based
How it was run: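 Agonist EC50s come from peak intracellular calcium transients recorded by FLIPR Tetra, scaled to the 1 μM apelin-13 maximum per plate. Test system: HEK293 stably transfected with human apelin receptor plus Giaq, Fluo-4-loaded (4 μM, 1 h, 37 °C, pH 7.4 buffer with probenecid); ≥7 concentrations, triplicates.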

SMILES	EC50
CCC(CC)n1c(Cc2cccs2)nc2cc(C(=O)N[C@H](COC)CC(C)C)ccc21 [Example 207, 1-(1-Ethyl-propyl)-2-thiophen-2-ylmethyl-1H-benzoimidazole-5-carboxylic acid ((S)-1-methoxymethyl-3-methyl-butyl)-amide]	554 nM

Same assay, conditions: HEK293 cells stably transfected with human apelin receptor and Giaq protein, Fluo-4 calcium fluorescence, read-out: EC50 (APJ agonism)

SMILES	EC50
CCCC[C@@H](CO)NC(=O)c1ccc2c(c1)nc(Cc1cccs1)n2C(CC)CC [Example 199, 1-(1-Ethyl-propyl)-2-thiophen-2-ylmethyl-1H-benzoimidazole-5-carboxylic acid ((S)-1-hydroxymethyl-pentyl)-amide]	710 nM
CCC[C@H](CO)NC(=O)c1ccc2c(c1)nc(Cc1cccs1)n2C(CC)CC [Example 200, 1-(1-Ethyl-propyl)-2-thiophen-2-ylmethyl-1H-benzoimidazole-5-carboxylic acid ((R)-1-hydroxymethyl-butyl)-amide]	8180 nM
CCC[C@@H](CO)NC(=O)c1ccc2c(c1)nc(Cc1cccs1)n2C(CC)CC [Example 201, 1-(1-Ethyl-propyl)-2-thiophen-2-ylmethyl-1H-benzoimidazole-5-carboxylic acid ((S)-1-hydroxymethyl-butyl)-amide]	334 nM
CCC(CC)n1c(Cc2cccs2)nc2cc(C(=O)NC(CO)c3ccccc3)ccc21 (stereo not shown) [Example 202, 1-(1-Ethyl-propyl)-2-thiophen-2-ylmethyl-1H-benzoimidazole-5-carboxylic acid (2-hydroxy-1-phenyl-ethyl)-amide]	14400 nM
CCC(CC)n1c(Cc2cccs2)nc2cc(C(=O)N[C@@H](CO)C3CCCCC3)ccc21 [Example 203, 1-(1-Ethyl-propyl)-2-thiophen-2-ylmethyl-1H-benzoimidazole-5-carboxylic acid ((R)-1-cyclohexyl-2-hydroxy-ethyl)-amide]	24700 nM
CCC(CC)n1c(Cc2cccs2)nc2cc(C(=O)N[C@H](CO)C3CCCCC3)ccc21 [Example 204, 1-(1-Ethyl-propyl)-2-thiophen-2-ylmethyl-1H-benzoimidazole-5-carboxylic acid ((S)-1-cyclohexyl-2-hydroxy-ethyl)-amide]	1990 nM
CCC(CC)n1c(Cc2cscn2)nc2cc(C(=O)N[C@H](CO)CC(C)C)ccc21 [Example 205, 1-(1-Ethyl-propyl)-2-thiazol-4-ylmethyl-1H-benzoimidazole-5-carboxylic acid ((S)-1-hydroxymethyl-3-methyl-butyl)-amide]	1750 nM
CCC(CC)n1c(Cc2cscn2)nc2cc(C(=O)N[C@H](COC)CC(C)C)ccc21 [Example 206, 1-(1-Ethyl-propyl)-2-thiazol-4-ylmethyl-1H-benzoimidazole-5-carboxylic acid ((S)-1-methoxymethyl-3-methyl-butyl)-amide]	2300 nM
CCOC[C@H](CC(C)C)NC(=O)c1ccc2c(c1)nc(Cc1cccs1)n2C(CC)CC [Example 208, 1-(1-Ethyl-propyl)-2-thiophen-2-ylmethyl-1H-benzoimidazole-5-carboxylic acid ((S)-1-ethoxymethyl-3-methyl-butyl)-amide]	1160 nM
CCC(CC)n1c(Cc2cccs2)nc2cc(C(=O)N[C@H](CO)CC(C)C)ccc21 [Example 209, 1-(1-Ethyl-propyl)-2-thiophen-2-ylmethyl-1H-benzoimidazole-5-carboxylic acid ((S)-1-hydroxymethyl-3-methyl-butyl)-amide]	254 nM
CCCCOC[C@H](CC(C)C)NC(=O)c1ccc2c(c1)nc(Cc1cccs1)n2C(CC)CC [Example 210, 1-(1-Ethyl-propyl)-2-thiophen-2-ylmethyl-1H-benzoimidazole-5-carboxylic acid ((S)-1-butoxymethyl-3-methyl-butyl)-amide]	10200 nM
CC(C)C[C@@H](CO)NC(=O)c1ccc2c(c1)nc(Cc1cccs1)n2C1CCCCC1C (stereo partly drawn) [Example 211, 1-(2-Methyl-cyclohexyl)-2-thiophen-2-ylmethyl-1H-benzoimidazole-5-carboxylic acid ((S)-1-hydroxymethyl-3-methyl-butyl)-amide]	705 nM
CCC(CC)n1c(Cc2cccs2)nc2cc(C(=O)NC(CCO)c3ccsc3)ccc21 (stereo not shown) [Example 212, 1-(1-Ethyl-propyl)-2-thiophen-2-ylmethyl-1H-benzoimidazole-5-carboxylic acid (3-hydroxy-1-thiophen-3-yl-propyl)-amide]	9290 nM
CCC(CC)n1c(Cc2cccs2)nc2cc(C(=O)NC(CCO)C3CC3)ccc21 (stereo not shown) [Example 213, 1-(1-Ethyl-propyl)-2-thiophen-2-ylmethyl-1H-benzoimidazole-5-carboxylic acid (1-cyclopropyl-3-hydroxy-propyl)-amide]	29900 nM
CCCC(CCO)NC(=O)c1ccc2c(c1)nc(Cc1cccs1)n2C(CC)CC (stereo not shown) [Example 214, 1-(1-Ethyl-propyl)-2-thiophen-2-ylmethyl-1H-benzoimidazole-5-carboxylic acid [1-(2-hydroxy-ethyl)-butyl]-amide]	926 nM
CCC(CC)n1c(Cc2cccs2)nc2cc(C(=O)N[C@@H](CC(C)C)C(=O)NC3CCC3)ccc21 [Example 215, 1-(1-Ethyl-propyl)-2-thiophen-2-ylmethyl-1H-benzoimidazole-5-carboxylic acid ((S)-1-cyclobutylcarbamoyl-3-methyl-butyl)-amide]	1450 nM
CC(C)C[C@H](NC(=O)c1ccc2c(c1)nc(Cc1cccs1)n2C1CCCCC1C)C(=O)N(C)C (stereo partly drawn) [Example 216, 1-(2-Methyl-cyclohexyl)-2-thiophen-2-ylmethyl-1H-benzoimidazole-5-carboxylic acid ((S)-1-dimethyl-carbamoyl-3-methyl-butyl)-amide]	1730 nM
CCC(CC)n1c(Cc2cccs2)nc2cc(C(=O)N[C@@H](CC(C)C)C(=O)N3CCSCC3)ccc21 [Example 217, 1-(1-Ethyl-propyl)-2-thiophen-2-ylmethyl-1H-benzoimidazole-5-carboxylic acid [(S)-3-methyl-1-(thiomorpholine-4-carbonyl)-butyl]-amide]	2210 nM
CCC(C)NC(=O)[C@H](CC(C)C)NC(=O)c1ccc2c(c1)nc(Cc1cccs1)n2C(CC)CC (stereo partly drawn) [Example 218, 1-(1-Ethyl-propyl)-2-thiophen-2-ylmethyl-1H-benzoimidazole-5-carboxylic acid ((S)-1-sec-butylcarbamoyl-3-methyl-butyl)-amide]	2010 nM
CCC(CC)n1c(Cc2cccs2)nc2cc(C(=O)N[C@@H](CC(C)C)C(=O)NCCC3CCCN3C)ccc21 (stereo partly drawn) [Example 219, 1-(1-Ethyl-propyl)-2-thiophen-2-ylmethyl-1H-benzoimidazole-5-carboxylic acid {(S)-3-methyl-1-[2-(1-methyl-pyrrolidin-2-yl)-ethylcarbamoyl]-butyl}-amide]	274 nM
CCC(CC)n1c(Cc2cccs2)nc2cc(C(=O)N[C@@H](CC(C)C)C(=O)NCc3ccccc3)ccc21 [Example 220, 1-(1-Ethyl-propyl)-2-thiophen-2-ylmethyl-1H-benzoimidazole-5-carboxylic acid ((S)-1-benzylcarbamoyl-3-methyl-butyl)-amide]	2860 nM
CCC(CC)n1c(Cc2cccs2)nc2cc(C(=O)N[C@@H](CC(C)C)C(=O)NCc3ccco3)ccc21 [Example 221, 1-(1-Ethyl-propyl)-2-thiophen-2-ylmethyl-1H-benzoimidazole-5-carboxylic acid {(S)-1-[(furan-2-ylmethyl)-carbamoyl]-3-methyl-butyl}-amide]	1830 nM
CCC(CC)n1c(Cc2cccs2)nc2cc(C(=O)N[C@@H](CC(C)C)C(=O)NCc3cccs3)ccc21 [Example 222, 1-(1-Ethyl-propyl)-2-thiophen-2-ylmethyl-1H-benzoimidazole-5-carboxylic acid {(S)-3-methyl-1-[(thiophen-2-ylmethyl)-carbamoyl]-butyl}-amide]	3990 nM
CCC(CC)n1c(Cc2cccs2)nc2cc(C(=O)N[C@@H](CC(C)C)C(=O)NCCc3cccs3)ccc21 [Example 223, 1-(1-Ethyl-propyl)-2-thiophen-2-ylmethyl-1H-benzoimidazole-5-carboxylic acid [(S)-3-methyl-1-(2-thiophen-2-yl-ethylcarbamoyl)-butyl]-amide]	6960 nM
CCC(CC)n1c(Cc2cccs2)nc2cc(C(=O)N[C@@H](CC(C)C)C(=O)NCCCN(C)C)ccc21 [Example 224, 1-(1-Ethyl-propyl)-2-thiophen-2-ylmethyl-1H-benzoimidazole-5-carboxylic acid [(S)-1-(3-dimethylamino-propylcarbamoyl)-3-methyl-butyl]-amide]	300 nM
CCC(CC)n1c(Cc2cccs2)nc2cc(C(=O)N[C@@H](CC(C)C)C(=O)N3CCN(C)CC3)ccc21 [Example 225, 1-(1-Ethyl-propyl)-2-thiophen-2-ylmethyl-1H-benzoimidazole-5-carboxylic acid [(S)-3-methyl-1-(4-methyl-piperazine-1-carbonyl)-butyl]-amide]	775 nM
CCC(CC)NC(=O)[C@H](CC(C)C)NC(=O)c1ccc2c(c1)nc(Cc1cccs1)n2C(CC)CC [Example 226, 1-(1-Ethyl-propyl)-2-thiophen-2-ylmethyl-1H-benzoimidazole-5-carboxylic acid [(S)-1-(1-ethyl-propylcarbamoyl)-3-methyl-butyl]-amide]	4870 nM
